According to ChEMBL document CHEMBL1144188, “Obovatol inhibits colorectal cancer growth by inhibiting tumor cell proliferation and inducing apoptosis” (Bioorg Med Chem, 2008):
Active and inactive are the calls of the source. The calls are words filed in the database; no cut-off is given here.

Key:
[1] = tested on: SW-620; assay: Antitumor activity in human SW620 cells xenografted nude mouse assessed as decrease in tumor volume at 2 mg/kg, ip after 21 days; assay type: functional; parameters: scale not given: the % may be the effect or the level left; conditions: route intraperitoneal
[2] = tested on: SW-620; assay: Antitumor activity in human SW620 cells xenografted nude mouse assessed as decrease in tumor weight at 2 mg/kg, ip after 21 days; assay type: functional; parameters: scale not given: the % may be the effect or the level left; conditions: route intraperitoneal
[3] = tested on: Mus musculus; assay: Toxicity in SW480 cells xenografted nude mouse assessed as change in body weight 2 mg/kg/day, ip after 21 days; assay type: organism-based; parameters: route intraperitoneal; conditions: in vivo, 504 h
[4] = tested on: SW-620; assay: Antitumor activity in human SW620 cells xenografted nude mouse assessed as decrease in tumor volume at 5 mg/kg/day, po after 10 days; assay type: functional
[5] = tested on: Mus musculus; assay: Toxicity in SW480 cells xenografted nude mouse assessed as change in body weight 5 mg/kg/day, ip after 21 days; assay type: organism-based; parameters: route intraperitoneal; conditions: in vivo, 504 h
[6] = tested on: SW-620; assay: Antitumor activity in human SW620 cells xenografted nude mouse assessed as decrease in tumor volume at 5 mg/kg/day, po after 23 days; assay type: functional
[7] = tested on: SW-620; assay: Antitumor activity in human SW620 cells xenografted nude mouse assessed as decrease in tumor volume at 5 mg/kg/day, po after 5 days; assay type: functional
[8] = tested on: SW-620; assay: Antitumor activity in human SW620 cells xenografted nude mouse assessed as decrease in tumor volume at 5 mg/kg/day, po after 27 days; assay type: functional
[9] = tested on: SW-620; assay: Antitumor activity in human SW620 cells xenografted nude mouse assessed as decrease in tumor volume at 5 mg/kg/day, po after 16 days; assay type: functional
[10] = tested on: SW-620; assay: Antitumor activity against human SW620 cells at 50 uM after 48 hrs; assay type: functional; conditions: SW-620, 48 h
[11] = tested on: SW-620; assay: Antitumor activity against human SW620 cells at 100 uM after 96 hrs; assay type: functional; conditions: SW-620, 96 h
[12] = tested on: SW-620; assay: Cell cycle arrest in human SW620 cells assessed as accumulation at S phase at 50 uM after 72 hrs by FACS analysis; assay type: functional
[13] = tested on: MDA-MB-231; assay: Antiproliferative activity against human MDA-MB-231 cells after 48 hrs by MTS assay; assay type: functional, cell-based
[14] = tested on: SW-620; assay: Antitumor activity against human SW620 cells at 30 uM after 24 hrs; assay type: functional; conditions: SW-620, 24 h
[15] = tested on: SW-620; assay: Induction of apoptosis in human SW620 cells assessed as apoptotic cell form at 50 uM relative to control; assay type: functional
[16] = tested on: HCT-116; assay: Antiproliferative activity against human HCT 116 cells after 48 hrs by MTS assay; assay type: functional, cell-based
[17] = tested on: DU-145; assay: Antiproliferative activity against human DU145 cells after 48 hrs by MTS assay; assay type: functional, cell-based
[18] = tested on: SW-620; assay: Antitumor activity against human SW620 cells at 100 uM after 72 hrs; assay type: functional; conditions: SW-620, 72 h
[19] = tested on: SW-620; assay: Antitumor activity in human SW620 cells xenografted nude mouse assessed as decrease in tumor volume at 5 mg/kg/day, ip after 21 days; assay type: functional; conditions: route intraperitoneal
[20] = tested on: SW-620; assay: Antitumor activity against human SW620 cells at 30 uM after 96 hrs; assay type: functional; conditions: SW-620, 96 h
[21] = tested on: SW-620; assay: Antitumor activity against human SW620 cells at 50 uM after 72 hrs; assay type: functional; conditions: SW-620, 72 h
[22] = tested on: SW-620; assay: Cell cycle arrest in human SW620 cells assessed as accumulation at subG1 phase at 50 uM after 72 hrs by FACS analysis; assay type: functional
[23] = tested on: SW-620; assay: Antitumor activity in human SW620 cells xenografted nude mouse assessed as decrease in tumor weight at 5 mg/kg/day, ip after 21 days; assay type: functional; parameters: scale not given: the % may be the effect or the level left; conditions: route intraperitoneal
[24] = tested on: SW-620; assay: Cell cycle arrest in human SW620 cells assessed as accumulation at G1 phase at 50 uM after 72 hrs by FACS analysis; assay type: functional
[25] = tested on: K562; assay: Antiproliferative activity against human K-562 cells after 48 hrs by MTS assay; assay type: functional, cell-based
[26] = tested on: SW-620; assay: Induction of apoptosis in human SW620 cells assessed as necrosis relative to control; assay type: functional
[27] = tested on: PC-3; assay: Antiproliferative activity against human PC-3 cells after 48 hrs by MTS assay; assay type: functional, cell-based
[28] = tested on: MDA-MB-231; assay: Induction of apoptosis in human MDA-MB-231 cells assessed as ROS production after 24 hrs; assay type: functional, cell-based
[29] = tested on: SW-620; assay: Antitumor activity against human SW620 cells at 50 uM after 24 hrs; assay type: functional; conditions: SW-620, 24 h
[30] = tested on: HT-29; assay: Antiproliferative activity against human HT-29 cells after 48 hrs by MTS assay; assay type: functional, cell-based
[31] = tested on: MCF7; assay: Antiproliferative activity against human MCF7 cells after 48 hrs by MTS assay; assay type: functional, cell-based
[32] = tested on: SW-620; assay: Cell cycle arrest in human SW620 cells assessed as accumulation at G2/M phase at 50 uM after 72 hrs by FACS analysis; assay type: functional
[33] = tested on: SW-620; assay: Antitumor activity against human SW620 cells at 100 uM after 24 hrs; assay type: functional; conditions: SW-620, 24 h
[34] = tested on: SW-620; assay: Antitumor activity against human SW620 cells at 100 uM after 48 hrs; assay type: functional; conditions: SW-620, 48 h
[35] = tested on: SW-620; assay: Induction of apoptosis in human SW620 cells assessed as chromosomal DNA fragmentation at […] after 48 hrs by FACS analysis; assay type: functional, cell-based
[36] = tested on: DLD-1; assay: Antiproliferative activity against human DLD1 cells after 48 hrs by MTS assay; assay type: functional, cell-based
[37] = tested on: SW-620; assay: Antitumor activity against human SW620 cells at 50 uM after 96 hrs; assay type: functional; conditions: SW-620, 96 h
[38] = tested on: SW-620; assay: Antitumor activity against human SW620 cells at 30 uM after 48 hrs; assay type: functional; conditions: SW-620, 48 h
[39] = tested on: SW-620; assay: Effect on apoptosis-mediated morphological changes in human SW620 cells assessed as round cell formation; assay type: functional, cell-based
[40] = tested on: SW-620; assay: Antitumor activity against human SW620 cells at 30 uM after 72 hrs; assay type: functional; conditions: SW-620, 72 h
[41] = tested on: MDA-MB-231; assay: Induction of apoptosis in human MDA-MB-231 cells assessed as morphological changes in presence of N-acetyl-cysteine after 24 hrs; assay type: functional, cell-based

COc1cccc2c1C(=O)c1c(O)c3c(c(O)c1C2=O)C[C@@](O)(C(=O)CO)C[C@@H]3O[C@H]1C[C@H](N)[C@H](O)[C@H](C)O1 [DOXORUBICIN]
Activity [1]: 58%
Activity [2]: 53.7%
Activity [3]: 13.1%

C=CCc1ccc(O)c(-c2ccc(O)c(CC=C)c2)c1 [HONOKIOL]
Activity [4]: 150 mm3
Activity [5]: Non-toxic
Activity [6]: 600 mm3
Activity [7]: 100 mm3
Activity [8]: 900 mm3
Activity [9]: 270 mm3

C=CCc1ccc(Oc2cc(CC=C)cc(O)c2O)cc1 [OBOVATOR]
Activity [4]: 130 mm3
inhibition at 50 µM [10]: 57%
inhibition at 100 µM [11]: 98%
Activity [12]: 30.4%
Activity [5]: Non-toxic
Activity [13]: Active
inhibition at 30 µM [14]: 7%
Activity [15]: <50%
Activity [6]: 400 mm3
Activity [16]: Active
Activity [17]: Active
inhibition at 100 µM [18]: 97%
Activity [19]: 277 mm3
inhibition at 30 µM [20]: 18%
inhibition at 50 µM [21]: 64%
Activity [22]: 23.36%
Activity [23]: 44.6%
Activity [7]: 100 mm3
Activity [24]: 53.6%
Activity [25]: Active
Activity [26]: <12%
Activity [27]: Active
Activity [28]: inactive
Activity [8]: 750 mm3
inhibition at 50 µM [29]: 21%
Activity [30]: Active
Activity [31]: Active
Activity [32]: 16%
Activity [9]: 150 mm3
inhibition at 100 µM [33]: 36%
inhibition at 100 µM [34]: 92%
Activity [35]: Active
Activity [36]: Active
inhibition at 50 µM [37]: 85%
inhibition at 30 µM [38]: 26%
Activity [39]: Active
inhibition at 30 µM [40]: 33%
Activity [41]: inactive
